Data as given in patent US10273290B2, “Hydrocarbon double-stapled stabilized HIV-1 GP41 heptad repeat domain peptides” (DANA-FARBER CANCER INSTITUTE, INC., priority 2009, dated 2019).
Bridge positions count the residues as written; N and C are the ends. Square brackets hold non-standard residues; d marks the D form. Peptide text beside a SMILES is read from it. S5 = C=CCCC[C@](C)(N)C(=O)O; Nle = CCCC[C@H](N)C(=O)O

Experiments:
chymotrypsin = target: T1, chymotrypsin (Bos taurus, UniProt P00766); assay: Protease resistance assay, chymotrypsin (LC/MS); assay type: in vitro ADME; conditions: pH 7.4, 0.5 chymotrypsin, peptide 25 μM
T1 construct: purchased Sigma
Method: The DAD signal was set to 280 nm with an 8 nm bandwidth and MSD set to scan mode with one channel at (M+2H)/2, +1 mass units and the other at (M+3H)/3, +1 mass units. Integration of each MSD signal yielded areas under the curve of >10^8 counts. Reaction samples were composed of 5 μL peptide in DMSO (1 mM stock) and 195 μL of buffer consisting of 50 mM phosphate buffer pH 7.4 containing 2 mM CaCl2. Upon injection of the 0 hr time point sample, 2 μL of 50 ng/μL chymotrypsin (Sigma) was added and the amount of intact peptide quantitated by serial injection over time. An internal control of acetylated tryptophan carboxamide at a concentration of 100 μM was used to normalize each MSD data point. A plot of MSD area versus time yielded an exponential decay curve and half-lives were determined by nonlinear regression analysis using Prism software (GraphPad).

pepsin = assay: Protease resistance assay, pepsin at pH 2; conditions: pepsin (isolated protease) in buffer, pH 2
Method: The DAD signal was set to 280 nm with an 8 nm bandwidth and MSD set to scan mode with one channel at (M+2H)/2, +1 mass units and the other at (M+3H)/3, +1 mass units. […] Reaction samples were composed of 5 μL peptide in DMSO (1 mM stock) and 195 μL of buffer consisting of 50 mM phosphate buffer pH 7.4 containing 2 mM CaCl2. Upon injection of the 0 hr time point sample, 2 μL of 50 ng/μL chymotrypsin (Sigma) was added and the amount of intact peptide quantitated by serial injection over time. An internal control of acetylated tryptophan carboxamide at a concentration of 100 μM was used to normalize each MSD data point. A plot of MSD area versus time yielded an exponential decay curve and half-lives were determined by nonlinear regression analysis using Prism software (GraphPad). The assay was also performed using trypsin and pepsin in their appropriate buffer conditions.

[1] = test system: resistant primary R5 isolate YU2; assay: Luciferase-based HIV-1 infectivity assay, YU2; assay type: cell-based; conditions: compared to T649v
Description: Also the direct inhibitory activity of modified polypeptides and the antibodies targeted thereto can be quantified based upon their capacity to directly block HIV infection of CD4-positive and CCR5-expressing canine thymus cells. Recombinant HIV-1 viruses (eg. HXBc2, YU2, and additional strains available through the NIH AIDS Research and Reference Reagent Program) expressing firefly luciferase and containing the indicated envelope glycoproteins can be used to infect Cf2Th-CD4-CCR5/CXCR4 cells in the presence of serially diluted modified HIV-1 gp41 polypeptides or antibodies targeted thereto After 48 hours, the cells are lysed and luciferase activity is quantified (Si, Z. H., M. Cayabyab, and J. Sodroski, Journal of Virology, 2001. 75(9): p. 4208-4218 Si, Z. H., et al., PNAS, 2004. 101(14): p. 5036-5041). The identical experiment is performed with the amphotropic murine leukemia virus (AMLV), to monitor for any nonspecific effects of the modified polypeptides or antibodies. […]
HIV-1 infectivity assays were performed using known methods (Madani et al., 2007 Inhibition of human immunodeficiency virus envelope glycoprotein-mediated single cell lysis by low-molecular-weight antagonists of viral entry. J Virol, 81: 532-538; and Si et al., 2001 Envelope glycoprotein determinants of neutralization resistance in a simian-human immunodeficiency virus (SHIV-HXBc2P 3.2) derived by passage in monkeys. J Virol, 75:4208-4218; both incorporated herein by reference). […] D-luciferin (50 μL of 1 mM stock in 100 μL luciferin buffer) is then added to each well and luciferase activity measured using a luminometer (EG&G Berthold).
To assess the functional impact of hydrocarbon stapling on gp41-based fusion inhibitor activity, SAH-gp41 peptides were tested and compared to their unmodified counterparts in a luciferase-based HIV-1 infectivity assay. Recombinant HIV-1 bearing the envelope glycoproteins from three distinct HIV-1 strains, HXBc2, ADA, and HXBc2P 3.2, and a negative control virus bearing the amphotropic murine leukemia virus (A-MLV) envelope glycoproteins, were evaluated. […]

Chymotrypsin, pH 7 = assay: Chymotrypsin, pH 7
Description: Table printed on a drawing sheet, FIG. 17C
Title: Chymotrypsin, pH 7
First reader's note: The table also serves as the legend of the plot of fraction intact over time; the line and marker symbols are left out.

[2] = Circular dichroism, α-helical content; assay type: physicochemical
Method: The α-helicity of stapled modified polypeptides was compared to their unmodified counterparts by circular dichroism. CD spectra were obtained on an Aviv spectropolarimeter at 20° C. using the following standard measurement parameters: wavelength, 190-260 nm; step resolution, 0.5 nm; speed, 20 nm/sec; accumulations, 10; response, 1 sec; bandwidth, 1 nm; path length, 0.1 cm. The α-helical content of each peptide was calculated by dividing the mean residue ellipticity [θ]222obs, by the reported [θ]222obs for a model helical peptide (Forood, B., E. J. Feliciano, and K. P. Nambiar, PNAS, 1993. 90(3): p. 838-842; J. Martin Scholtz, Biopolymers, 1991. 31(13): p. 1463-1470; Lawless, M. K., et al., Biochemistry, 1996. 35(42): p. 13697-13708) or using, for example, the Aviv machine using CDNN software developed by Brohm in order to deduce five different secondary structure fractions (helix, parallel and antiparallel beta-sheet, beta-turn and random coil). Protein Engineering, 1992. 5(3); p. 191-195
In order to evaluate secondary structure improvements of hydrocarbon-stapled peptides, we record and analyze circular dichroism (CD) spectra on an Aviv Biomedical spectrometer (model 410), as described above. […] The CD spectra are initially plotted as wavelength versus millidegree. […] After conversion to mean residue ellipticity, percent α-helicity can be calculated using the equation, % helicity=100×[θ]222/^max[θ]222, where ^max[θ]222=−40,000×[1−(2.5/number of amino acid residues)]. We also employ the curve-fitting CDDN software that is bundled with our spectrometer to calculate the relative fractions of secondary structure including α-helix, parallel and antiparallel β-sheet, β-turn and random coil.

SMILES: CCCC[C@H](NC(C)=O)C(=O)N[C@H](C(=O)N[C@@H](Cc1c[nH]c2ccccc12)C(=O)N[C@@]1(C)CCCC=CCCC[C@@](C)(C(=O)N[C@@H](CCC(=O)O)C(=O)N[C@H](C(=O)N[C@@H](CC(N)=O)C(=O)N[C@@H](CC(N)=O)C(=O)N[C@@H](Cc2ccc(O)cc2)C(=O)N[C@H](C(=O)N[C@@H](CO)C(=O)N[C@@H](CC(C)C)C(=O)N[C@H](C(=O)N[C@@H](Cc2c[nH]cn2)C(=O)N[C@@H](CO)C(=O)N[C@@H](CC(C)C)C(=O)N[C@H](C(=O)N[C@@H](CCC(=O)O)C(=O)N[C@@H](CCC(=O)O)C(=O)N[C@@H](CO)C(=O)N[C@@H](CCC(N)=O)C(=O)N[C@@H](CC(N)=O)C(=O)N[C@@H](CCC(N)=O)C(=O)N[C@@H](CCC(N)=O)C(=O)N[C@@H](CCC(=O)O)C(=O)N[C@@H](CCCCN)C(=O)N[C@@H](CC(N)=O)C(=O)N[C@@H](CCC(=O)O)C(=O)N[C@@H](CCC(N)=O)C(=O)N[C@@H](CCC(=O)O)C(=O)N[C@@H](CC(C)C)C(=O)N[C@@H](CC(C)C)C(=O)N[C@@H](CCC(=O)O)C(N)=O)[C@@H](C)CC)[C@@H](C)CC)[C@@H](C)O)[C@@H](C)CC)NC(=O)[C@H](CC(=O)O)NC(=O)[C@H](Cc2c[nH]c3ccccc23)NC(=O)[C@H](CCC(=O)O)NC1=O)[C@@H](C)O [SAH-gp41(626-662)(A)] (Ac-[Nle]TW[S5]EWD[S5]EINNYTSLIHSLIEESQNQQEKNEQELLE-NH2; staple 4-8; N-terminus and C-terminus assumed)
- Half-Life (chymotrypsin): 79 min
- half-life at 25 μM (pepsin): 118 min
- anti-YU2 activity, in words [1]: enhanced anti-YU2 activity
- Half-Life (Chymotrypsin, pH 7): 116 min

SMILES: CCCC[C@H](NC(C)=O)C(=O)N[C@H](C(=O)N[C@@H](Cc1c[nH]c2ccccc12)C(=O)N[C@@H](CCCC)C(=O)N[C@@H](CCC(=O)O)C(=O)N[C@@H](Cc1c[nH]c2ccccc12)C(=O)N[C@@H](CC(=O)O)C(=O)N[C@@H](CCCNC(=N)N)C(=O)N[C@@H](CCC(=O)O)C(=O)N[C@H](C(=O)N[C@@H](CC(N)=O)C(=O)N[C@@H](CC(N)=O)C(=O)N[C@@H](Cc1ccc(O)cc1)C(=O)N[C@H](C(=O)N[C@@H](CO)C(=O)N[C@@H](CC(C)C)C(=O)N[C@H](C(=O)N[C@@H](Cc1c[nH]cn1)C(=O)N[C@@H](CO)C(=O)N[C@@H](CC(C)C)C(=O)N[C@H](C(=O)N[C@@H](CCC(=O)O)C(=O)N[C@@H](CCC(=O)O)C(=O)N[C@@H](CO)C(=O)N[C@@H](CCC(N)=O)C(=O)N[C@@H](CC(N)=O)C(=O)N[C@@H](CCC(N)=O)C(=O)N[C@@]1(C)CCCC=CCCC[C@@](C)(C(=O)N[C@@H](CCC(N)=O)C(=O)N[C@@H](CCC(=O)O)C(=O)N[C@@H](CC(C)C)C(=O)N[C@@H](CC(C)C)C(=O)N[C@@H](CCC(=O)O)C(N)=O)NC(=O)[C@H](CC(N)=O)NC(=O)[C@H](CCCCN)NC(=O)[C@H](CCC(=O)O)NC1=O)[C@@H](C)CC)[C@@H](C)CC)[C@@H](C)O)[C@@H](C)CC)[C@@H](C)O [SAH-gp41(626-662)(F)] (Ac-[Nle]TW[Nle]EWDREINNYTSLIHSLIEESQNQ[S5]EKN[S5]QELLE-NH2; staple 28-32; N-terminus and C-terminus assumed)
- % helicity at pH 2 ([2]; pH 2): 82%
- % helicity at pH 7 ([2]; pH 7): 63%
- Half-Life (chymotrypsin): 102 min
- half-life at 25 μM (pepsin): 129 min
- anti-YU2 activity, in words [1]: enhanced anti-YU2 activity
- Half-Life (Chymotrypsin, pH 7): 77 min
